In PMC2879659 (International journal of comparative psychology / ISCP ; …, 2010):

Assays:
zebrafish (Danio rerio) [1] = settings: cited from earlier work; for bottom dwelling by zebrafish, effect: another study, ref Bencan, Sledge, & Levin, 2009
zebrafish (Danio rerio) [2] = experiment: Novel aquatic light/dark plus maze test; assay type: in vivo; settings: for time frozen in the center of the maze: PETCO San Antonio zebrafish, N = 5-6, controls 81 ± 48 s
zebrafish (Danio rerio) [3] = experiment: Novel dive tank test; settings: 3 min exposure
zebrafish = settings: ref Lau et al., 2010; cited from earlier work
zebrafish (Danio rerio) [4] = settings: 0.05 h, 125 ug/mL
[5] = 25 mg/L, Aquatic Eco-Systems zebrafish, N = 9
[6] = 25 mg/L, PETCO zebrafish, N = 8
[7] = 125 mg/L, PETCO zebrafish, N = 4, not significant vs untreated
[8] = 50 and 100 mg/L, zebrafish from PETCO San Antonio, TX
[9] = nicotine 25 mg/L, AB, WIK, PETCO and GloFish lines

In the case of `O=C1CC2(CCCC2)CC(=O)N1CCCCN1CCN(c2ncccn2)CC1` [buspirone], the “bottom dwelling by zebrafish, effect” value (zebrafish (Danio rerio) [1]) is listed as “reduced bottom dwelling”.
For `COC(=O)[C@@H]1[C@H]2C[C@H]3c4[nH]c5ccccc5c4CCN3C[C@@H]2CC[C@@H]1O` [yohimbine], the “total arm entries, effect” value (zebrafish (Danio rerio) [2]; [5]) was “did not differ in total arm entries” and the “time spent in top 2/3 of dive tank, effect vs controls” value (“time spent … vs controls” for short) (zebrafish (Danio rerio) [3]; [5]) was “did not differ from untreated control fish”.
For `CNC1=Nc2ccc(Cl)cc2C(c2ccccc2)=[N+]([O-])C1` [chlordiazepoxide], the “total arm entries, effect” value (zebrafish (Danio rerio) [2]; [5]) was “did not differ in total arm entries”, the “time in the white arms” value (zebrafish (Danio rerio) [2]; 25 mg/L, Aquatic Eco-Systems zebrafish, N = 9, controls 60 ± 10 s) was 124 ± 25 s and the “white arm entries, % of total entries” value (zebrafish (Danio rerio) [2]; 25 mg/L, Aquatic Eco-Systems zebrafish, N = 9, untreated 22 ± 2%) was 36 ± 5%. For the same compound, the “time spent … vs controls” value (zebrafish (Danio rerio) [3]; [5]) was “did not differ from untreated control fish” and the “time spent on the light side of a tank, effect” value (zebrafish) was “increased the amount of time zebrafish spent on the light side of a tank”.
In the case of `CN(C)CCCC1(c2ccc(F)cc2)OCc2cc(C#N)ccc21` (stereo not shown) [citalopram], the “anxiolytic behaviors in the plus maze” value (zebrafish (Danio rerio) [2]; 100 mg/L, Aquatic Eco-Systems zebrafish) is reported as “neither desipramine nor citalopram produced any anxiolytic behaviors in the plus maze” and the “total arm entries, effect” value (zebrafish (Danio rerio) [2]; 100 mg/L, Aquatic Eco-Systems zebrafish, N = 9) is reported as “did not differ in total arm entries”.
In the case of `CN1CCC[C@H]1c1cccnc1` [nicotine], the “arm entries, effect vs controls” value (zebrafish (Danio rerio) [2]; [6]) is reported as “Neither nicotine nor desipramine exposure had any effect on arm entries”, the “time frozen in the center of the maze” value (zebrafish (Danio rerio) [2]; 50 mg/L) is reported as 9 ± 5 s and the “time frozen in the center of the maze” value (zebrafish (Danio rerio) [2]; 100 mg/L) is reported as 198 ± 46 s. The “% of white entries” value (zebrafish (Danio rerio) [2]; [7]) was 25 ± 3%, the arm entries (zebrafish (Danio rerio) [2]; [7]) was 30 ± 9 entries and the “time frozen in the middle” value (zebrafish (Danio rerio) [2]; [7]) was 57 ± 17 s. The “total time spent in white arms” value (zebrafish (Danio rerio) [2]; [7]) was 56 ± 24 s, the “time spent in white arms, effect” value (zebrafish (Danio rerio) [2]; [8]) was “no effect” and the “white arm entries, effect” value (zebrafish (Danio rerio) [2]; [8]) was “no effect”. The “% white arm entries of total entries, effect” value (zebrafish (Danio rerio) [2]; [9]) was “no effect”, the “initial time frozen in centre (latency to enter an arm), effect” value (zebrafish (Danio rerio) [2]; [9]) was “no influence” and the “time spent in white arms, effect” value (zebrafish (Danio rerio) [2]; [9]) was “nor was there an effect”. The “total number of arm entries, effect” value (zebrafish (Danio rerio) [2]; [9]) was “no effect”, the “time spent in top of dive tank, effect vs untreated” value (from here on “time spent in top … vs untreated”) (zebrafish (Danio rerio) [3]; [6]) was “Neither 25 mg/L nicotine (NIC) nor 0.05% DMSO affected behavior in the dive tank” and the “time spent in top … vs untreated” value (zebrafish (Danio rerio) [3]; nicotine 25 mg/L, AB, WIK, PETCO and GloFish lines, 5 min test) was “no significant anxiolytic effect”. For the same compound, the “bottom dwelling in novel dive tanks, effect” value (zebrafish (Danio rerio) [1]; 50 and 100 mg/L, previous studies, ref Levin et al., 2007) was “reduced zebrafish bottom dwelling at earlier time points” and the “time at the dive tank top” value (zebrafish (Danio rerio) [4]) was 4 ± 4 s.
For `CNCCCN1c2ccccc2CCc2ccccc21` [desipramine], the “anxiolytic behaviors in the plus maze” value (zebrafish (Danio rerio) [2]; 25 mg/L, PETCO zebrafish) was “neither desipramine nor citalopram produced any anxiolytic behaviors in the plus maze”, the “arm entries, effect vs controls” value (zebrafish (Danio rerio) [2]; [6]) was “Neither nicotine nor desipramine exposure had any effect on arm entries” and the “time spent in top … vs untreated” value (zebrafish (Danio rerio) [3]; [6]) was “significantly more time in the top of the dive tank than untreated fish”.
For `CN1C(=O)CN=C(c2ccccc2)c2cc(Cl)ccc21` [diazepam], the “bottom dwelling by zebrafish, effect” value (zebrafish (Danio rerio) [1]) is given as “reduced bottom dwelling”.
For `CCO` [ethanol], the “total arm entries, effect vs controls” value (zebrafish (Danio rerio) [2]; 0.5% ethanol, PETCO zebrafish, N = 7) was “significant increase in total arm entries”, the “time in white arms” value (zebrafish (Danio rerio) [2]; 0.5% ethanol, PETCO zebrafish, N = 7, untreated controls 41 ± 17 s) was 126 ± 20 s and the “time spent … vs controls” value (zebrafish (Danio rerio) [3]; 0.5% ethanol, PETCO zebrafish, p = 0.08) was “non-significant trend toward zebrafish spending more time in the top 2/3 of the tank”.
In the case of `C[S+](C)[O-]` [DMSO], the “total arm entries, effect vs controls” value (zebrafish (Danio rerio) [2]; 0.05% DMSO, PETCO zebrafish, N = 8) is reported as “significant increase in total arm entries”, the “time in white arms, effect vs controls” value (zebrafish (Danio rerio) [2]; 0.05% DMSO, PETCO zebrafish, N = 8, p < 0.05) is reported as “spent significantly more time in white arms than untreated controls” and the “time spent … vs controls” value (zebrafish (Danio rerio) [3]; 0.05% DMSO, PETCO zebrafish) is reported as “no significant anxiolytic effect”.
